Earlier results, collected in patent publication US20060188492A1, “Topical management of ocular and periocular conditions” (ChronoRX LLC, an Alaska Limited Liability Company, priority 2005, published 2006).

Tests used:
[1] = test system: lens; settings: experimental evidence; compared with the R isomer
[2] = in the presence of glutathione (GSH)
[3] = test system: bovine aortic endothelial cells; settings: LA added before endothelial exposure to AGE albumin

Structure (SMILES)	prevention of cataract development [1]	further results
O=C(O)CCCCC1CCSS1 (stereo not drawn) [R stereoisomer of LA, 1,2-dithiolane-3-pentanoic acid]	can prevent cataract development	
C[C@]12CC[C@@H]3c4ccc(O)cc4CC[C@H]3[C@@H]1CC[C@H]2O [estradiol, 17 α-estradiol]		increase of neuroprotective potency [2]: 400 fold
O=C(O)CCCCC1CCSS1 (racemic) [racemic mixture, 1,2-dithiolane-3-pentanoic acid]	less than one-half as effective as the R isomer	
O=C(O)CCCCC1CCSS1 (single isomer, unassigned) [S isomer, 1,2-dithiolane-3-pentanoic acid]	not effective	
O=C(O)CCCCC1CCSS1 (centres unmarked) [LA, 1,2-dithiolane-3-pentanoic acid]		depletion of GSH and ascorbic acid [3]: completely prevents depletion of GSH and ascorbic acid
